Experimental data from ChEMBL document CHEMBL1140787, “Discovery of beta-benzamido hydroxamic acids as potent, selective, and orally bioavailable TACE inhibitors” (Bioorg Med Chem Lett, 2008).
Each block holds one compound with its values, some of them ahead of it.

Tests used:
[1] = tested on: Blood; experiment: Inhibition of LPS-stimulated TNFalpha release in human whole blood; type: functional, tissue-based
[2] = biological target: Disintegrin and metalloproteinase domain-containing protein 17 (Sus scrofa, UniProt O77636); experiment: Inhibition of pig TACE
Sequence of Disintegrin and metalloproteinase domain-containing protein 17 (O77636 whole entry, the tested form may be a part): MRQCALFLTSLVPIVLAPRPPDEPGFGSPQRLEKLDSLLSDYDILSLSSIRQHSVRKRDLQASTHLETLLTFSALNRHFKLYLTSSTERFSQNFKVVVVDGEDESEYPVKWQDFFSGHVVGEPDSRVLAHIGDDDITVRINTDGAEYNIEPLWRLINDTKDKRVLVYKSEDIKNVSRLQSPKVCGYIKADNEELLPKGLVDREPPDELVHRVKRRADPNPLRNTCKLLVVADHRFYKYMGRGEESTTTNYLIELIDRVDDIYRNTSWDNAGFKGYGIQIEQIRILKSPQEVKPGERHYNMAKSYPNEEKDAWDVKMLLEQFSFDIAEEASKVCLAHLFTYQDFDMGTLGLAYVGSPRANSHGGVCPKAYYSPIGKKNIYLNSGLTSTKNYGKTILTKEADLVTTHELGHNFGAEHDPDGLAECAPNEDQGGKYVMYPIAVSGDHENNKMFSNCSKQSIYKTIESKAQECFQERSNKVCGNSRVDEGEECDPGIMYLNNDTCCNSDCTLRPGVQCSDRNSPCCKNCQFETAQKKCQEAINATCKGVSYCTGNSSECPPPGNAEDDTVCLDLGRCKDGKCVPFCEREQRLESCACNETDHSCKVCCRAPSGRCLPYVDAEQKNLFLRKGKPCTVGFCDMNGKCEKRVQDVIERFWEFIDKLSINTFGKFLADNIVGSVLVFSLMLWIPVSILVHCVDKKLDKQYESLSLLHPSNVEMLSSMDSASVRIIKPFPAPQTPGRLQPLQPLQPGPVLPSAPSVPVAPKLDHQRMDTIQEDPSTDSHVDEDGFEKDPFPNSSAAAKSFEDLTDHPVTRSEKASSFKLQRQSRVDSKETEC

[3] = Permeability across human Caco-2 cell membrane; type: ADME, cell-based
[4] = biological target: Stromelysin-1 (Homo sapiens, UniProt P08254); experiment: Inhibition of MMP3
Sequence of Stromelysin-1 (P08254 whole entry): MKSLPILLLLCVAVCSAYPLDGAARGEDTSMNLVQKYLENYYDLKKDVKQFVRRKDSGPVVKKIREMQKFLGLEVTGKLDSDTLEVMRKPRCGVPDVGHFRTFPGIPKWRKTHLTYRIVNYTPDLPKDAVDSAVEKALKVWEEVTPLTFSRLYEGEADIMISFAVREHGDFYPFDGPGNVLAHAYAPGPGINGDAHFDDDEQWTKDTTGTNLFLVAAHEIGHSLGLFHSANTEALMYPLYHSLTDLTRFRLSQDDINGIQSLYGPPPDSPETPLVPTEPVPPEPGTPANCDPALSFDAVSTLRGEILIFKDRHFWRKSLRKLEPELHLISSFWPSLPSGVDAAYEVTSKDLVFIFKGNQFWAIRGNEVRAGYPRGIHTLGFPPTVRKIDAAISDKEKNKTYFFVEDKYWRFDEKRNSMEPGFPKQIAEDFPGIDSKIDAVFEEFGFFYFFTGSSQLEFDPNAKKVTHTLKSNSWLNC

[5] = biological target: T1, Matrilysin (Homo sapiens, UniProt P09237); experiment: Inhibition of MMP7
T1 sequence (P09237 whole entry): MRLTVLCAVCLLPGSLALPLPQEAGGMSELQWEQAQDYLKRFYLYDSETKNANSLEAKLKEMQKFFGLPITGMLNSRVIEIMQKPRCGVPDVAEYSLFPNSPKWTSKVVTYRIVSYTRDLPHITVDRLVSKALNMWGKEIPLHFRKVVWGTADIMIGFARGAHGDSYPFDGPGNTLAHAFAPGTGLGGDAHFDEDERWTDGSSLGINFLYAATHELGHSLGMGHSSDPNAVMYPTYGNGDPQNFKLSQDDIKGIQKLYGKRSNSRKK

[6] = biological target: Stromelysin-2 (Homo sapiens, UniProt P09238); experiment: Inhibition of MMP10
Sequence of Stromelysin-2 (P09238 whole entry): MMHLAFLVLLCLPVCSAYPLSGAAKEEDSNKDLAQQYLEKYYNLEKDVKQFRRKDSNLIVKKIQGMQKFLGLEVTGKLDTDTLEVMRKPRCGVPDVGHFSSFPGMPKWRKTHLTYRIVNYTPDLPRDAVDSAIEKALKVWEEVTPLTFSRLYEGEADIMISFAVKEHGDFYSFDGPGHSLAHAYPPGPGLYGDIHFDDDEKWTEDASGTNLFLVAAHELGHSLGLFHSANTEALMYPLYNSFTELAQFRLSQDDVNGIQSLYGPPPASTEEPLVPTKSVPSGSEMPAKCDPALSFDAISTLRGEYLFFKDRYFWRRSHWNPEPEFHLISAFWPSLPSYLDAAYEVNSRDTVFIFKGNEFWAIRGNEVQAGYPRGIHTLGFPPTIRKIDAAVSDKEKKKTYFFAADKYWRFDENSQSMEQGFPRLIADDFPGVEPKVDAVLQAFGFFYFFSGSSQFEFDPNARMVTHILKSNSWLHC

[7] = biological target: Macrophage metalloelastase (Homo sapiens, UniProt P39900); experiment: Inhibition of MMP12
Sequence of Macrophage metalloelastase (P39900 whole entry): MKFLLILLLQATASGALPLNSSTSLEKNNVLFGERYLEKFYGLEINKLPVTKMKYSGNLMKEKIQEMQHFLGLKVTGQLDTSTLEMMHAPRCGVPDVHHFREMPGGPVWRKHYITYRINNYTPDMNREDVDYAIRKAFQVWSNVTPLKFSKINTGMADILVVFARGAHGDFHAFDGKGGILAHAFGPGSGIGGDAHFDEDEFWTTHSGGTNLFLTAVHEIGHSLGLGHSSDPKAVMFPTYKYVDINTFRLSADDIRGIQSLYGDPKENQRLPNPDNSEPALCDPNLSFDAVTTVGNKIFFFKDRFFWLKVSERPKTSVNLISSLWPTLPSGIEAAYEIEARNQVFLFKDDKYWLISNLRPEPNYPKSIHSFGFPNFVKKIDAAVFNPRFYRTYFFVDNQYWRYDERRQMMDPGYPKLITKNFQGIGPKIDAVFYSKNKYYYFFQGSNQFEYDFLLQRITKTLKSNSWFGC

[8] = Fraction unbound in rat serum; type: ADME, cell-free
[9] = Fraction unbound in dog serum; type: ADME, cell-free, Canis lupus familiaris
[10] = Fraction unbound in human serum; type: ADME, cell-free
[11] = biological target: Cytochrome P450 3A4 (Homo sapiens, UniProt P08684); experiment: Inhibition of CYP3A4 at 20 uM; type: ADME
Sequence of Cytochrome P450 3A4 (P08684 whole entry): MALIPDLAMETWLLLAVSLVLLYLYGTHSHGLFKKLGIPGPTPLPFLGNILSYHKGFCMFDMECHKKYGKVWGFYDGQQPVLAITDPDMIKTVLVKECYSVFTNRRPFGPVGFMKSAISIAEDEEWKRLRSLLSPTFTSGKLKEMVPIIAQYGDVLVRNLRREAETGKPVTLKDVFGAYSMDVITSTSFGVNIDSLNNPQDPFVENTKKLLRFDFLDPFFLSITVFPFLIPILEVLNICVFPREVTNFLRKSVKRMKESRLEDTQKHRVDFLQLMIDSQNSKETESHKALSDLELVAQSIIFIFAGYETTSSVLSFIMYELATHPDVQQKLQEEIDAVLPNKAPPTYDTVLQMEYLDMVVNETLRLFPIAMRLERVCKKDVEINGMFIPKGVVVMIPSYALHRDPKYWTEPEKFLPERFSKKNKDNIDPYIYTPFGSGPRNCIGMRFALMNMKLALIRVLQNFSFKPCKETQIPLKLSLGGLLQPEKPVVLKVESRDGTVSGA

[12] = tested on: Mus musculus; experiment: Inhibition of LPS-induced TNFalpha production in po dosed mouse endotoxemia model; type: functional
[13] = tested on: Rattus norvegicus; experiment: Inhibition of LPS-induced TNFalpha production in po dosed rat endotoxemia model; type: functional
[14] = Half life in Sprague-Dawley rat at 2 mg/kg, iv; type: ADME, organism-based; set-up: dose 2 mg/kg, route intravenous; conditions: in vivo
[15] = Clearance in Sprague-Dawley rat at 2 mg/kg, iv; type: ADME, organism-based; set-up: dose 2 mg/kg, route intravenous; conditions: in vivo
[16] = Volume of distribution at steady state in Sprague-Dawley rat at 2 mg/kg, iv; type: ADME, organism-based; set-up: dose 2 mg/kg, route intravenous; conditions: in vivo, read-out: Vdss
[17] = AUC in Sprague-Dawley rat at 2 mg/kg, iv; type: ADME, organism-based; set-up: dose 2 mg/kg, route intravenous; conditions: plasma
[18] = AUC in Sprague-Dawley rat at 40 mg/kg, po; type: ADME, organism-based; set-up: dose 40 mg/kg, route oral; conditions: plasma
[19] = Oral bioavailability in Sprague-Dawley rat at 40 mg/kg; type: ADME, organism-based; conditions: in vivo
[20] = Tmax in Sprague-Dawley rat at 40 mg/kg, po; type: ADME, organism-based; set-up: dose 40 mg/kg, route oral; conditions: in vivo
[21] = Half life in Beagle dog at 2 mg/kg, iv; type: ADME, organism-based, Canis lupus familiaris; set-up: dose 2 mg/kg, route intravenous; conditions: in vivo
[22] = Clearance in Beagle dog at 2 mg/kg, iv; type: ADME, organism-based, Canis lupus familiaris; set-up: dose 2 mg/kg, route intravenous; conditions: in vivo
[23] = Volume of distribution at steady state in Beagle dog at 2 mg/kg, iv; type: ADME, organism-based, Canis lupus familiaris; set-up: dose 2 mg/kg, route intravenous; conditions: in vivo, read-out: Vdss
[24] = AUC in Beagle dog at 2 mg/kg, iv; type: ADME, organism-based, Canis lupus familiaris; set-up: dose 2 mg/kg, route intravenous; conditions: plasma
[25] = AUC in Beagle dog at 8 mg/kg, po; type: ADME, organism-based, Canis lupus familiaris; set-up: dose 8 mg/kg, route oral; conditions: plasma
[26] = Oral bioavailability in Beagle dog at 8 mg/kg; type: ADME, organism-based, Canis lupus familiaris; conditions: in vivo
[27] = Tmax in Beagle dog at 8 mg/kg, po; type: ADME, organism-based, Canis lupus familiaris; set-up: dose 8 mg/kg, route oral; conditions: in vivo

- IC50 [1]: 20 nM
SMILES: Cc1cc(COc2ccc(NC(=O)[C@@H]3[C@@H](C(=O)NO)CCCN3C)cc2)c2ccccc2n1

- IC50 [2]: 2 nM
- IC50 [1]: 44 nM
- Papp [3]: 0.6 ×10⁻⁶ cm/s
SMILES: Cc1cc(COc2ccc(C(=O)N[C@@H]3CN(C(C)(C)C)CC[C@@H]3C(=O)NO)cc2)c2ccccc2n1

- IC50 [2]: 2 nM
- IC50 [1]: 55 nM
- Papp [3]: 0.1 ×10⁻⁶ cm/s
SMILES: Cc1cc(COc2ccc(C(=O)N[C@@H]3CN(CCN(C)C)CC[C@@H]3C(=O)NO)cc2)c2ccccc2n1

SMILES: Cc1cc(COc2ccc(C(=O)N[C@@H]3CCOC[C@@H]3C(=O)NO)cc2)c2ccccc2n1
- IC50 [2]: < 1 nM
- Ki [2]: 0.15 nM
- IC50 [1]: 130 nM
- Papp [3]: 2.3 ×10⁻⁶ cm/s
- Ki [4]: < 100 nM
- Ki [5]: < 100 nM
- Ki [6]: < 100 nM
- Ki [7]: < 100 nM
- fraction unbound [8]: 0.038
- fraction unbound [9]: 0.17
- fraction unbound [10]: 0.075
- Activity [11]: Not Active
- ED50 [12]: 2.2 mg/kg
- ED50 [13]: 3 mg/kg
- half-life [14]: 84 min
- clearance [15]: 11.7 mL/min/kg
- Vd [16]: 0.4 L/kg
- AUC [17]: 5.7 µM·h
- AUC [18]: 65 µM·h
- bioavailability [19]: 58%
- Tmax [20]: 24 min
- half-life [21]: 96 min
- clearance [22]: 28.3 mL/min/kg
- Vd [23]: 1.6 L/kg
- AUC [24]: 2.7 µM·h
- AUC [25]: 11 µM·h
- bioavailability [26]: 96%
- Tmax [27]: 12 min

SMILES: Cc1cc(COc2ccc(C(=O)N[C@@H]3COCC[C@@H]3C(=O)NO)cc2)c2ccccc2n1
- IC50 [2]: < 1 nM
- IC50 [1]: 290 nM
- Papp [3]: 0.4 ×10⁻⁶ cm/s

- IC50 [2]: 2 nM
- IC50 [1]: > 3000 nM
SMILES: Cc1cc(COc2ccc(C(=O)N[C@@H]3CCCC[C@H]3C(=O)NO)cc2)c2ccccc2n1

- IC50 [2]: 2 nM
- IC50 [1]: 890 nM
- Papp [3]: 3.4 ×10⁻⁶ cm/s
SMILES: Cc1cc(COc2ccc(C(=O)N[C@@H]3CCCC[C@@H]3C(=O)NO)cc2)c2ccccc2n1

- IC50 [2]: 1 nM
- IC50 [1]: 2860 nM
- Papp [3]: 0.4 ×10⁻⁶ cm/s
SMILES: Cc1cc(COc2ccc(C(=O)NC3CCC3C(=O)NO)cc2)c2ccccc2n1 (configuration not stated)

- IC50 [2]: 1 nM
- IC50 [1]: 187 nM
- Papp [3]: 0.2 ×10⁻⁶ cm/s
SMILES: Cc1cc(COc2ccc(C(=O)N[C@@H]3CNCC[C@@H]3C(=O)NO)cc2)c2ccccc2n1

- IC50 [2]: 24 nM
- IC50 [1]: 620 nM
- Papp [3]: 0.2 ×10⁻⁶ cm/s
SMILES: Cc1cc(COc2ccc(C(=O)N[C@@H]3CCNC[C@@H]3C(=O)NO)cc2)c2ccccc2n1

- IC50 [2]: 3 nM
- IC50 [1]: 4110 nM
- Papp [3]: 0.06 ×10⁻⁶ cm/s
SMILES: Cc1cc(COc2ccc(C(=O)N[C@@H]3CCCO[C@@H]3C(=O)NO)cc2)c2ccccc2n1

- IC50 [2]: < 1 nM
- IC50 [1]: 393 nM
SMILES: Cc1cc(COc2ccc(C(=O)N[C@H]3CNCC[C@@H]3C(=O)NO)cc2)c2ccccc2n1
